Source: article PMC6979384, “Characterization of the plant homeodomain (PHD) reader family for their histone tail interactions” (Epigenetics & Chromatin, 2020)

How the values were obtained:
Test in all cases: Histone peptide microarray
Format in all cases: binding, human
[1] = test system: MLL5; conditions: GST-tagged MLL5
Method in brief: (§1)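 Histone peptide library (293 synthetic peptides, single/combinatorial PTMs) arrayed and probed with 0.5 μM purified GST-PHD domain; optimized protocol; quadruplicate mean and SD reported.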

[2] = test system: TAF3; conditions: GST-tagged TAF3
Method in brief: as §1

[3] = test system: DIDO1; conditions: GST-tagged DIDO1
Method in brief: as §1

[4] = test system: ING2; conditions: GST-tagged ING2
Method in brief: as §1

[5] = test system: KDM5B (3); conditions: GST-tagged KDM5B (3)
Method in brief: as §1

[6] = test system: PHF8; conditions: GST-tagged PHF8
Method in brief: as §1

[7] = test system: PHF21A; conditions: GST-tagged PHF21A
Method in brief: as §1

[8] = test system: DPF2 (PPC2W2); conditions: GST-tagged DPF2 (PPC2W2 = Dual PHD + C2W2-type Zn-finger)
Method in brief: as §1

[9] = test system: KDM7A; conditions: GST-tagged KDM7A
Method in brief: as §1

[10] = test system: KDM5A (1); conditions: GST-tagged KDM5A (1)
Method in brief: as §1

[11] = test system: PHF23; conditions: GST-tagged PHF23
Method in brief: as §1

[12] = test system: PHRF1 (RP); conditions: GST-tagged PHRF1 (RP)
Method in brief: as §1

[13] = test system: CHD5 (PCC); conditions: GST-tagged CHD5 (PCC = PHD + Dual Chromodomain)
Method in brief: as §1

[14] = test system: KDM5B (1); conditions: GST-tagged KDM5B (1)
Method in brief: as §1

[15] = test system: BPTF (PB); conditions: GST-tagged BPTF (PB = PHD + Bromodomain)
Method in brief: as §1

[16] = test system: BAZ2B; conditions: GST-tagged BAZ2B
Method in brief: as §1

[17] = test system: MORC3 (CW); conditions: GST-tagged MORC3 (CW = CW-type Zn-finger)
Method in brief: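 Purified PHD finger domains fused to GST are screened against 293 synthetic histone peptides bearing one or several post-translational modifications. The protein is used at 0.5 μM, and the signal from four replicate arrays is averaged, with standard deviation given.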

[18] = test system: KDM5A (3); conditions: GST-tagged KDM5A (3)
Method in brief: as §1

[19] = test system: RAG2; conditions: GST-tagged RAG2
Method in brief: as §1

[20] = test system: CHD5 (PPCC); conditions: GST-tagged CHD5 (PPCC = Dual PHD + Dual Chromodomain)
Method in brief: as §1

[21] = test system: KDM4C (TTP); conditions: GST-tagged KDM4C (TTP = Tandem Tudor domain + PHD)
Method in brief: as §1

[22] = test system: PHF2; conditions: GST-tagged PHF2
Method in brief: as §1

[23] = test system: PHF13; conditions: GST-tagged PHF13
Method in brief: as §1

[24] = test system: ING4; conditions: GST-tagged ING4
Method in brief: as §1

[25] = test system: ING1; conditions: GST-tagged ING1
Method in brief: as §1

[26] = test system: CHD4 (PPCC); conditions: GST-tagged CHD4 (PPCC = Dual PHD + Dual Chromodomain)
Method in brief: as §1

[27] = test system: SP140L; conditions: GST-tagged SP140L
Method in brief: as §1

[28] = test system: ING3; conditions: GST-tagged ING3
Method in brief: as §1

[29] = test system: TRIM66 (PB); conditions: GST-tagged TRIM66 (PB = PHD + Bromodomain)
Method in brief: as §1

[30] = test system: AIRE (PP); conditions: GST-tagged AIRE (PP)
Method in brief: as §1

[31] = test system: ING5; conditions: GST-tagged ING5
Method in brief: as §1

[32] = histone peptide array, arrays performed twice, n of 4
[33] = sheet Array Heatmap, each array performed twice, total n = 4

Substance: H3R2me2a + K4ac + K9ac + K14ac + K18ac: H3 1-20
- Array Heatmap signal, MLL5 [1, 32]: 0.5333
- Array Heatmap signal, TAF3 [2, 32]: 0.2624
- Array Heatmap signal, DIDO1 [3, 32]: 0.6585
- Array Heatmap signal, ING2 [4, 32]: 0.5976
- Array Heatmap signal, KDM5B (3) [5, 32]: 0.4924
- Array Heatmap signal, PHF8 [6, 32]: 0.3535
- Array Heatmap signal, PHF21A [7, 32]: 0.4733
- Array Heatmap signal, DPF2 (PPC2W2) [8, 32]: 0.6307
- Array Heatmap signal, KDM7A [9, 32]: 0.4047
- Array Heatmap signal, KDM5A (1) [10, 32]: 0.4917
- Array Heatmap signal, PHF23 [11, 32]: 0.5405
- Array Heatmap signal, PHRF1 (RP) [12, 32]: 0.4078
- Array Heatmap signal, CHD5 (PCC) [13, 32]: 0.8359
- Array Heatmap signal, KDM5B (1) [14, 32]: 0.6453
- Array Heatmap signal, BPTF (PB) [15, 32]: 0.3551
- Array Heatmap signal, BAZ2B [16, 32]: 0.5184
- Array Heatmap signal, MORC3 (CW) [17, 32]: 0.3697
- Array Heatmap signal, KDM5A (3) [18, 32]: 0.405
- Array Heatmap signal, RAG2 [19, 32]: 0.259
- Array Heatmap signal, CHD5 (PPCC) [20, 32]: 0.5571
- Array Heatmap signal, KDM4C (TTP) [21, 32]: 0.4988
- Array Heatmap signal, PHF2 [22, 32]: 0.4783
- Array Heatmap signal, PHF13 [23, 32]: 0.6029
- Array Heatmap signal, ING4 [24, 32]: 0.4485
- Array Heatmap signal, ING1 [25, 32]: 0.488
- Array Heatmap signal, CHD4 (PPCC) [26, 32]: 0.5562
- Array Heatmap signal, SP140L [27, 32]: 0.3281
- Array Heatmap signal, ING3 [28, 32]: 0.5009
- Array Heatmap signal, TRIM66 (PB) [29, 32]: 0.5934
- Array Heatmap signal, AIRE (PP) [30, 32]: 0.481
- Array Heatmap signal, ING5 [31, 32]: 0.3422

Substance: H3R2me2a + K4me3 + K9ac + S10p + K14ac + K18ac: H3 1-20
- Array Heatmap signal (histone peptide microarray) [1, 33]: 0.625
- Array Heatmap signal (histone peptide microarray) [2, 33]: 0.4085
- Array Heatmap signal (histone peptide microarray) [3, 33]: 0.8949
- Array Heatmap signal (histone peptide microarray) [4, 33]: 0.6564
- Array Heatmap signal (histone peptide microarray) [5, 33]: 0.4836
- Array Heatmap signal (histone peptide microarray) [6, 33]: 0.4417
- Array Heatmap signal (histone peptide microarray) [7, 33]: 0.4526
- Array Heatmap signal (histone peptide microarray) [8, 33]: 0.6777
- Array Heatmap signal (histone peptide microarray) [9, 33]: 0.3601
- Array Heatmap signal (histone peptide microarray) [10, 33]: 0.4602
- Array Heatmap signal (histone peptide microarray) [11, 33]: 0.5457
- Array Heatmap signal (histone peptide microarray) [12, 33]: 0.447
- Array Heatmap signal (histone peptide microarray) [13, 33]: 0.7925
- Array Heatmap signal (histone peptide microarray) [14, 33]: 0.6513
- Array Heatmap signal (histone peptide microarray) [15, 33]: 0.3887
- Array Heatmap signal (histone peptide microarray) [16, 33]: 0.4937
- Array Heatmap signal (histone peptide microarray) [17, 33]: 0.5411
- Array Heatmap signal (histone peptide microarray) [18, 33]: 0.601
- Array Heatmap signal (histone peptide microarray) [19, 33]: 0.3777
- Array Heatmap signal (histone peptide microarray) [20, 33]: 0.548
- Array Heatmap signal (histone peptide microarray) [21, 33]: 0.4723
- Array Heatmap signal (histone peptide microarray) [22, 33]: 0.7095
- Array Heatmap signal (histone peptide microarray) [23, 33]: 0.6389
- Array Heatmap signal (histone peptide microarray) [24, 33]: 0.4604
- Array Heatmap signal (histone peptide microarray) [25, 33]: 0.5459
- Array Heatmap signal (histone peptide microarray) [26, 33]: 0.6237
- Array Heatmap signal (histone peptide microarray) [27, 33]: 0.3224
- Array Heatmap signal (histone peptide microarray) [28, 33]: 0.4975
- Array Heatmap signal (histone peptide microarray) [29, 33]: 0.5406
- Array Heatmap signal (histone peptide microarray) [30, 33]: 0.4047
- Array Heatmap signal (histone peptide microarray) [31, 33]: 0.3501
